# Bridges are numbered along the chain shown (N, C = ends). Where no end group is shown, it is not given here.
# Legend:
# [1] = tested on: Human mesenchymal stem cells; assay: Alizarin red S staining (calcification) of human mesenchymal stem cells; assay type: cell-based; settings: 300 μM; Day 21; regardless of induction of differentiation
# Method: On Day 21 after differentiation, the cells were washed with PBS, followed by fixation with a 10% neutral buffer formalin solution.
# The cells were washed with water after removal of the fixative solution. A 1% alizarin red S stain solution (Nacalai) (150 μL) was added thereto. The plate was left at room temperature for 3 minutes. Thereafter, the stain solution was discarded, followed by washing with water and drying. Then, microscopic observation was carried out.
# Human mesenchymal stem cells were cultured in the same manner as in Example 1. Peptide D (300 μM) was added to human mesenchymal stem cells.
# MC3T3-E1 cells = assay: ALP activity determination in MC3T3-E1 cells; assay type: cell-based, mouse
# Method: (§1) Seven days after differentiation, the culture supernatant was removed from each plate and the cells were fixed with an acetone/ethanol solution. The ALP activity was determined using p-nitrophenyl phosphate as a substrate. Specifically, a carbonate buffer (5 mM MgCl2, 50 mM NaHCO3) containing p-nitrophenyl phosphate (Nacalai) (1 mg/mL) was added to each well (100 μL/well), followed by incubation at 37° C. Then, the OD value at 405 nm was determined with the use of a microplate reader (BMG Labtech) for each well.
# Cells mixed with 10% FBS+αMEM (GIBCO) were seeded on a 96-well plate (8×10^3 cells/well) and a 48-well plate (2×10^4 cells/well). The culture supernatant of each plate was replaced with 10% FBS+αMEM containing 5 mM β glycerophosphoric acid (SIGMA)+10 μg/mL sodium ascorbate (SIGMA) 48 hours later. Then, the medium was replaced with new medium every 3 or 4 days. As a control, MC3T3-E1 was cultured with the use of 10% FBS+αMEM as a maintenance medium. Upon medium replacement, a peptide was added to each plate at a concentration of 300 μM, ALP activity determination and alizarin red S staining were carried out by the method described in Example 1 on Days 7 and 21.
# MC3T3-E1 cells mixed with 10% FBS+αMEM (SIGMA) were seeded on a 96-well plate (1.5×10^4 cells/well). After 12 hours, the medium was removed therefrom and a medium containing an SB203580 p38 inhibitor (Calbiochem) was added thereto. […] Then, ALP activity determination was carried out by the method described in Example 1.
# Similarly, rhDkk-1 (R&D) was added as a Wnt antagonist at concentrations of 0.25, 0.5, and 1 μg/ml. After 1 hour, 200 μM peptide D was added thereto, followed by culture for 5 days. Then, ALP activity determination was carried out by the method described in Example 1.
# In addition, as described above, BMPR-IA (R&D) was added as a BMP antagonist at concentrations of 0.25 and 1 μg/ml. […] Then, ALP activity determination was carried out by the method described in Example 1. […] Based on the above results, it was likely that actions of peptide D depend on BMP induction or BMP produced constantly and spontaneously by cells.
# MC3T3-E1 cells mixed with 10% FBS+α MEM (SIGMA) were seeded on a 96-well plate (1.5×10^4 cells/well).
# Further, peptide D and peptide E were compared with each other in terms of ALP activity enhancement actions in MC3T3-E1 cells. Peptide D and peptide E were used at concentrations of 25, 50, 100, and 200 μM for culture under the conditions described in Example 14, followed by determination of ALP activity by the method described in Example 1.
# MC3T3-E1 cells (mouse osteoblast precursor cells) mixed with 10% FBS+αMEM (SIGMA) were seeded on a 96-well plate (2×10^4 cells/well). After cell adhesion, the medium was removed therefrom, followed by ALP activity determination in the cases involving the addition of 50 and 150 μM peptide D (acetate and hydrochloride). […] On Day 5 after the addition of the individual factors, the culture supernatant was removed, followed by ALP activity determination by the method described in Example 1.
# MC3T3-E1 cells (mouse osteoblast precursor cells) mixed with 10% FBS+αMEM (SIGMA) were seeded on a 96-well plate (2×10^4 cells/well). After cell adhesion had taken place, the medium was removed therefrom, followed by determination of ALP activity in the cases involving the mixing of 5 ng/mLBMP-2 (produced by CHO cells) with 6.25, 12.5, 25, 50, and 100 μM synthetic peptide D. On Day 5 after the addition of the individual factors, the culture supernatant was removed, followed by ALP activity determination by the method described in Example 1.
# At the end of the experiment, synergistic effects of synthetic peptide D in the form of acetate and BMP-4 (R&D) were also examined. MC3T3-E1 cells (mouse osteoblast precursor cells) mixed with 10% FBS+αMEM (SIGMA) were seeded on a 96-well plate (2×10^4 cells/well). […]
# [2] = tested on: Human mesenchymal stem cells; assay: ALP activity determination in human mesenchymal stem cells; assay type: cell-based; settings: Day 7, differentiation medium and maintenance medium
# Method: Human mesenchymal stem cells were seeded on a 96-well plate (1×10^3 cells/well) (Nunc) and a 48-well plate (2.4×10^3 cells/well) (IWAKI). After 24 hours, the culture supernatant was removed from each plate and an osteoblast differentiation induction medium (Lonza) was introduced thereonto. The medium was replaced with new medium every 3 or 4 days.
# At such time, peptide D was added at a concentration of 100 μM (group treated with peptide D). As a negative control, the control peptide was added at the same concentration.
# as §1
# Human mesenchymal stem cells (hMSC; Lonza) were seeded on a 96-well plate (Nunc) (2×10^3 cells/well). After cell adhesion had taken place, the medium was replaced with a differentiation medium prepared by adding 100 nM dexamethasone (SIGMA), 10 mM BGP(SIGMA), and 50 μg/mL ascorbic acid to a dedicated maintenance medium (Lonza). […]
# Human osteoblasts = assay: ALP activity determination in human osteoblasts; assay type: cell-based; settings: antibodies 100 ng/mL or 1 ng/mL; culture for 5 or 6 days
# Method: as §1
# The reagents such as anti-RANKL polyclonal antibodies and anti-RANKL monoclonal antibodies used in this Example were the same as those used in Example 4. In addition, an anti-RANKL monoclonal antibody ((C): clone 12A380) (ALEXIS), human OPGFc, and human RANKFc (R&D)) were used. ALP activity determination was carried out as in Example 1. All of the above antibodies are antibodies against mouse RANKL.
# Human osteoblasts were seeded on a 96-well plate (3.1×10^3/well) and a 48-well plate (7.65×10^3/well). After cell adhesion had taken place, differentiation was carried out using a medium containing 5 mM β-glycerophosphoric acid. The antibodies were added (100 ng/mL or 1 ng/mL) upon differentiation. Culture was carried out for 5 or 6 days, followed by ALP activity determination.
substance,measurement,setting,value
"peptide D: cyclic peptide of SEQ ID NO: 7, 9 amino acids, two cysteine residues bound via a disulfide bond; binds to RANKL (YCWSQYLCY; disulfide 2-8 (inferred))",alizarin red staining (calcification),[1],strong degree of alizarin red staining
same,ALP activity,MC3T3-E1 cells; 150 μM peptide D combined with 30 ng/mL BMP-2,additive actions of ALP activity enhancement
same,ALP activity,"MC3T3-E1 cells; 300 μM, Day 7 after differentiation",significantly increased
same,ALP activity,"MC3T3-E1 cells; 25, 50, 100 and 200 μM, 5 days",enhance ALP activity in a concentration-dependent manner
same,"ALP activity, peptide D compared with peptide E",MC3T3-E1 cells; 50 and 100 μM,significant enhancement actions compared with peptide E
same,ALP activity,[2]; 300 μM,significant increase in ALP activity
same,ALP activity,[2]; peptide D 100 μM,significantly increased
same,ALP activity,Human osteoblasts,significant increase in ALP activity

# Reference: US20100260680A1, “NOVEL BONE MASS INCREASING AGENT” (ORIENTAL YEAST CO., LTD., priority 2007, published 2010)
